As a reminder, the % Inhibition is the drop in the measured response relative to a control, in per cent. In general, inhibition refers to the share of the control response that was lost under treatment. The melting point is the temperature, or range, at which the solid turns liquid.

Experimental findings from patent US9850216B2 (H. LEE MOFFITT CANCER CENTER AND RESEARCH INSTITUTE, INC., priority 2013, dated 2017) are described below.

Where “and” joins values, the source holds several entries; their conditions need not be identical. Equal values may be shown once.

One data set has as its target ACK1 (Homo sapiens, UniProt Q07912). Briefly: ACK1 ELISA: phosphorylation of AKT-derived peptide. Type of data set: biochemical. The conditions noted are these: 10 μM, Table 1, replicate values listed; for inhibition at 10 µM: read-out: % Inhibition at 10 μM (ELISA).

Sequence of ACK1 (Q07912 whole entry): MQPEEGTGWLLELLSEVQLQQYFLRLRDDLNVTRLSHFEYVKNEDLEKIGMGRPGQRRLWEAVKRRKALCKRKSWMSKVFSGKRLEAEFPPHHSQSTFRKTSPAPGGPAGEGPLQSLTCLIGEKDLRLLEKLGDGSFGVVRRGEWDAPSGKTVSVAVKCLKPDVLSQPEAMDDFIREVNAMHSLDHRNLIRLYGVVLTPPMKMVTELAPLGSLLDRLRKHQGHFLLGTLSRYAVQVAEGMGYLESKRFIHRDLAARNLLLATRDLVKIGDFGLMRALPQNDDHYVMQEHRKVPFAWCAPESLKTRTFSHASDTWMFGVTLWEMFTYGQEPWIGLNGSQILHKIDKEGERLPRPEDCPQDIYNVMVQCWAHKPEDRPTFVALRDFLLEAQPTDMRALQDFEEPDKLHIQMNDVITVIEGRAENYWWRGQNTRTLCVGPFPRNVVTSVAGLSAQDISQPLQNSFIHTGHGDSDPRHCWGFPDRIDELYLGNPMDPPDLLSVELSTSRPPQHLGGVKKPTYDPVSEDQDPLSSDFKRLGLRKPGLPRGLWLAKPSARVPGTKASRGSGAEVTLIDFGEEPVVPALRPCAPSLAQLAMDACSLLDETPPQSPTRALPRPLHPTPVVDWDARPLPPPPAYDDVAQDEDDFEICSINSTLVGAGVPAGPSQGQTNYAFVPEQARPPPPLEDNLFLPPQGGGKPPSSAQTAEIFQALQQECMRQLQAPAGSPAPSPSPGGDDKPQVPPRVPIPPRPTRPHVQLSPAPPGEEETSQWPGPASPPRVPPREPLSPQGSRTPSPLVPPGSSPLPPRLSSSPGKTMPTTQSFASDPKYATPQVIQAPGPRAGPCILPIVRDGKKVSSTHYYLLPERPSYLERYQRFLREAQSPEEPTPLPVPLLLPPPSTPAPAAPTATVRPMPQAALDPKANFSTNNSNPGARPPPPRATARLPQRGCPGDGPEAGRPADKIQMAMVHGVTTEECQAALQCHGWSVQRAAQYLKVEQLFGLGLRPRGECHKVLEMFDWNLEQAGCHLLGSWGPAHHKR

`CCCSc1ccccc1Nc1nc(Nc2ccc(O)cc2)ncc1C(=O)Nc1c(F)cccc1Cl` [YL7-055-4, N-(2-chloro-6-fluorophenyl)-2-(4-hydroxyphenylamino)-4-(2-(propylthio)phenylamino)pyrimidine-5-carboxamide]: the melting point is 208 °C (dec.). At ACK1, the “% Inhibition at 10 μM (ELISA)” value is recorded as 27% and the inhibition at 10 µM turned out to be 28%.

In the case of `CCCS(=O)(=O)c1ccccc1Nc1nc(Nc2ccc(O)cc2)ncc1C(=O)Nc1c(F)cccc1Cl` [YL7-055-2, N-(2-chloro-6-fluorophenyl)-2-(4-hydroxyphenylamino)-4-(2-(propylsulfonyl)phenylamino)pyrimidine-5-carboxamide], the melting point was 165 °C (dec.). Besides, on ACK1, the “% Inhibition at 10 μM (ELISA)” value came to 58% and the inhibition at 10 µM stood at 57%.

As to `CCS(=O)(=O)c1ccccc1Nc1nc(Cl)ncc1C(=O)Nc1c(F)cccc1Cl` [YL7-054, 2-Chloro-N-(2-chloro-6-fluorophenyl)-4-(2-(ethylsulfonyl)phenylamino)pyrimidine-5-carboxamide], the melting point fell in the range of 230 to 233 °C. At ACK1, the “% Inhibition at 10 μM (ELISA)” value was 0% and −3% and −25%.

`CSc1ccccc1Nc1nc(Cl)ncc1C(=O)Nc1c(F)cccc1Cl` [YL7-031B2, 2-Chloro-N-(2-chloro-6-fluorophenyl)-4-(2-(methylthio)phenylamino)pyrimidine-5-carboxamide] displayed a melting point of 204 to 206 °C. Also, on ACK1, the inhibition at 10 µM amounted to 0%.

Take `COc1ccc(CNc2ncc(C(=O)Nc3c(F)cccc3Cl)c(Nc3ccccc3S(=O)(=O)C(C)C)n2)cc1` [YL7-106-1, N-(2-chloro-6-fluorophenyl)-4-(2-(isopropylsulfonyl)phenylamino)-2-(4-methoxybenzylamino)pyrimidine-5-carboxamide]: the melting point is 227 °C (dec.). At ACK1, the “% Inhibition at 10 μM (ELISA)” value was 14% and 0%.

In the case of `Cc1cnc(Nc2ccc(N3CCN(C)CC3)cc2)nc1NCC1CCCO1` (stereo not drawn) [DZ1-100, 5-methyl-N2-(4-(4-methylpiperazin-1-yl)phenyl)-N4-((tetrahydrofuran-2-yl)methyl)pyrimidine-2,4-diamine], the melting point was 151.7 °C (dec.). Moreover, the “% Inhibition at 10 μM (ELISA)” value at ACK1 is 85% and 54% and 5% and 10%.

In the case of `Cl.Fc1cc(Nc2ncc(Br)c(NCC3CCCO3)n2)ccc1Cl` (stereo not drawn) [YL7-172-7, 5-Bromo-N2-(4-chloro-3-fluorophenyl)-N4-((tetrahydrofuran-2-yl)methyl)pyrimidine-2,4-diamine hydrochloride], the melting point is 172 °C (dec.). Besides, the “% Inhibition at 10 μM (ELISA)” value on ACK1 (hydrochloride) is 0% and 5% and 3%.

Turning to `CC(C)Sc1ccccc1Nc1nc(Cl)ncc1C(=O)Nc1c(F)cccc1Cl` [YL7-040, 2-Chloro-N-(2-chloro-6-fluorophenyl)-4-(2-(isopropylthio)phenylamino)pyrimidine-5-carboxamide], the melting point lay within 202 to 205 °C. The inhibition at 10 µM on ACK1 turned out to be 0%.

For the molecule `O=C(Nc1c(F)cccc1Cl)c1cnc(Cl)nc1NCC1CCCO1` (stereo not drawn) [YL7-102, 2-Chloro-N-(2-chloro-6-fluorophenyl)-4-((tetrahydrofuran-2-yl)methylamino)pyrimidine-5-carboxamide], the melting point is 142 °C (dec.). The inhibition at 10 µM on ACK1 was 0%.

Take `CN1CCN(c2ccc(Nc3nc(NCC4CCCO4)c4ccccc4n3)cc2)CC1` (stereo not drawn) [DZ1-106, N2-(4-(4-methylpiperazin-1-yl)phenyl)-N4-((tetrahydrofuran-2-yl)methyl)quinazoline-2,4-diamine]: the melting point is 60.1 °C (dec.). In addition, at ACK1, the “% Inhibition at 10 μM (ELISA)” value came to 14% and the inhibition at 10 µM was found to be 19%.

On to `CCCSc1ccccc1Nc1nc(Cl)ncc1C(=O)Nc1c(F)cccc1Cl` [YL7-051, 2-Chloro-N-(2-chloro-6-fluorophenyl)-4-(2-(propylthio)phenylamino)pyrimidine-5-carboxamide], for which the melting point is 197 to 200 °C. At ACK1, the inhibition at 10 µM was determined as 0%.

The molecule `COc1ccc(Nc2ncc(C(=O)Nc3c(F)cccc3Cl)c(Nc3ccccc3SC(C)C)n2)cc1` [YL7-045-3, N-(2-chloro-6-fluorophenyl)-4-(2-(isopropylthio)phenylamino)-2-(4-methoxyphenylamino)pyrimidine-5-carboxamide] registered a melting point of 237 to 240 °C. For the same molecule, the “% Inhibition at 10 μM (ELISA)” value on ACK1 was −15% and 0%.

On to `Cl.O=C(O)Cc1ccc(Nc2ncc(Br)c(NCC3CCCO3)n2)cc1` (stereo not drawn) [NT1-022, 2-(4-(5-Bromo-4-((tetrahydrofuran-2-yl)methylamino)pyrimidin-2-ylamino)phenyl)acetic acid], for which the melting point is 120 °C (dec.). For the same molecule, at ACK1, the “% Inhibition at 10 μM (ELISA)” value is on record as 63% and the inhibition at 10 µM came out at 59%.

For the molecule `Cc1ccc(Nc2ncc(Br)c(NCC3CCCO3)n2)cc1F.Cl` (stereo not drawn) [YL7-172-4, 5-Bromo-N2-(3-fluoro-4-methylphenyl)-N4-((tetrahydrofuran-2-yl)methyl)pyrimidine-2,4-diamine hydrochloride], the melting point was 189 °C (dec.). The “% Inhibition at 10 μM (ELISA)” value at ACK1 (hydrochloride) was 0% and −12% and 20%.

The molecule `CCS(=O)(=O)c1ccccc1Nc1nc(Nc2ccc(OC)cc2)ncc1C(=O)Nc1c(F)cccc1Cl` [YL7-058-1, N-(2-chloro-6-fluorophenyl)-4-(2-(ethylsulfonyl)phenylamino)-2-(4-methoxyphenylamino)pyrimidine-5-carboxamide] yielded a melting point of 263 to 265 °C. In addition, the “% Inhibition at 10 μM (ELISA)” value on ACK1 is −6% and 0%.

On to `CCCS(=O)(=O)c1ccccc1Nc1nc(Cl)ncc1C(=O)Nc1c(F)cccc1Cl` [YL7-052, 2-Chloro-N-(2-chloro-6-fluorophenyl)-4-(2-(propylsulfonyl)phenylamino)pyrimidine-5-carboxamide], for which the melting point lay within 226 to 229 °C. For the same molecule, the “% Inhibition at 10 μM (ELISA)” value on ACK1 was 0% and 14% and −8%.

Consider `Cc1cnc(Nc2ccc(O)cc2)nc1NCC1CCCO1` (stereo not drawn) [DZ1-116, 4-(5-methyl-4-((tetrahydrofuran-2-yl)methylamino)pyrimidin-2-ylamino)phenol], for which the melting point was 145.4 °C (dec.). Besides, on ACK1, the “% Inhibition at 10 μM (ELISA)” value was 15% and 5%.

On to `Cl.O=C(O)CCCc1ccc(Nc2ncc(Cl)c(NC[C@H]3CCCO3)n2)cc1` [NT1-026, (R)-4-(4-(5-Chloro-4-((tetrahydrofuran-2-yl)methylamino)pyrimidin-2-ylamino)phenyl)butanoic acid], for which the melting point was 180 °C (dec.). On ACK1, the “% Inhibition at 10 μM (ELISA)” value was 65% and the inhibition at 10 µM came out at 55%.

Take `CCS(=O)(=O)c1ccccc1Nc1nc(Nc2ccc(O)cc2)ncc1C(=O)Nc1c(F)cccc1Cl` [YL7-058-2, N-(2-chloro-6-fluorophenyl)-4-(2-(ethylsulfonyl)phenylamino)-2-(4-hydroxyphenylamino)pyrimidine-5-carboxamide]: the melting point was 201 °C (dec.). Besides, on ACK1, the “% Inhibition at 10 μM (ELISA)” value is 68% and 43%.

On to `Cl.O=C(Nc1c(F)cccc1Cl)c1cnc(Nc2ccc(O)c(Cl)c2)nc1NCC1CCCO1` (stereo not drawn) [YL8-009-1, 2-(3-Chloro-4-hydroxyphenylamino)-N-(2-chloro-6-fluorophenyl)-4-((tetrahydrofuran-2-yl)methylamino)pyrimidine-5-carboxamide hydrochloride], for which the melting point was 158 °C (dec.). In addition, the “% Inhibition at 10 μM (ELISA)” value at ACK1 (hydrochloride) is 42% and 48%. Besides, the inhibition at 10 µM on ACK1 amounted to 41%.

With `CCSc1ccccc1Nc1nc(Nc2ccc(O)cc2)ncc1C(=O)Nc1c(F)cccc1Cl` [YL7-058-4, N-(2-chloro-6-fluorophenyl)-4-(2-(ethylthio)phenylamino)-2-(4-hydroxyphenylamino)pyrimidine-5-carboxamide], the melting point was 233 °C (dec.). Further, the “% Inhibition at 10 μM (ELISA)” value at ACK1 was 24% and 47%.

`CC(C)S(=O)(=O)c1ccccc1Nc1nc(Nc2ccc(O)cc2)ncc1C(=O)Nc1c(F)cccc1Cl` [YL7-045-2, N-(2-chloro-6-fluorophenyl)-2-(4-hydroxyphenylamino)-4-(2-(isopropylsulfonyl)phenylamino)pyrimidine-5-carboxamide]: the melting point is 168 °C (dec.). At ACK1, the “% Inhibition at 10 μM (ELISA)” value is reported as 50% and the inhibition at 10 µM was determined as 47%.

Take `CC(C)S(=O)(=O)c1ccccc1Nc1nc(Nc2ccc(C(N)=O)cc2)ncc1C(=O)Nc1c(F)cccc1Cl` [YL7-106-3, 2-(4-Carbamoylphenylamino)-N-(2-chloro-6-fluorophenyl)-4-(2-(isopropylsulfonyl)phenylamino)pyrimidine-5-carboxamide]: the melting point was 230 °C (dec.). Further, on ACK1, the “% Inhibition at 10 μM (ELISA)” value is 43% and the inhibition at 10 µM was 51%.

Regarding `CC(C)(C)OC(=O)N1CCN(c2ccc(Nc3ncc(Br)c(NCC4CCCO4)n3)cc2)CC1.Cl` (stereo not drawn) [YL9-157, tert-Butyl4-(4-(5-bromo-4-((tetrahydrofuran-2-yl)methylamino)pyrimidin-2-ylamino)phenyl)piperazine-1-carboxylate hydrochloride], the melting point is 124 °C (dec.). Moreover, on ACK1 (hydrochloride), the “% Inhibition at 10 μM (ELISA)” value is 46%. At ACK1, the inhibition at 10 µM stood at 47%.

On to `CSc1ccccc1Nc1nc(Nc2ccc(O)cc2)ncc1C(=O)Nc1c(F)cccc1Cl` [YL7-039-2, N-(2-chloro-6-fluorophenyl)-2-(4-hydroxyphenylamino)-4-(2-(methylthio)phenylamino)pyrimidine-5-carboxamide], for which the melting point was 246 °C (dec.). For the same molecule, the “% Inhibition at 10 μM (ELISA)” value on ACK1 was 40% and 5%.

`CCSc1ccccc1Nc1nc(Cl)ncc1C(=O)Nc1c(F)cccc1Cl` [YL7-053, 2-Chloro-N-(2-chloro-6-fluorophenyl)-4-(2-(ethylthio)phenylamino)pyrimidine-5-carboxamide] displayed a melting point of 205 to 208 °C. Besides, on ACK1, the inhibition at 10 µM was determined as 0%.

As for `Cl.NC(=O)c1ccc(Nc2ncc(Br)c(NCC3CCCO3)n2)cc1` (stereo not drawn) [YL7-172-5, 4-(5-Bromo-4-((tetrahydrofuran-2-yl)methylamino)pyrimidin-2-ylamino)benzamide hydrochloride], the melting point was 251 °C (dec.). In addition, the “% Inhibition at 10 μM (ELISA)” value at ACK1 (hydrochloride) was 31% and 77% and 82%.
